# Test results taken from patent US9511062B2, “Compacted rumen protected nutrient pellets and method of manufacture” (Qualitech, Inc., priority 2011, dated 2016).
# Tests used:
# [1] = Rumen protected niacin, response to epinephrine (Epi) challenge; format: in vivo, Holstein cows
# Text: Niacin may modulate lipolytic responses in adipose tissue but is highly degradable in the rumen so that oral administration leads to unknown quantities absorbed. We determined responses to epinephrine (Epi) challenge as affected by three levels of protected niacin (PN) or unprotected niacin (UN) in the diet or infused abomasally.
# Six multiparous rumen-cannulated Holstein cows (BW=656 kg; 128±23 days in milk) were used in a completely randomized 6×6 Latin Square with an extra period to quantify carryover effects. Periods consisted of 7 days for adaptation followed by 7 days for measurements. Cows were fed according to NRC (2001) recommendations. Treatments were: CON (no niacin), INF (abomassal infusion of 12 g UN), N12 (12 g UN), BN3 (3 g PN), BN6 (6 g PN), and BN12 (12 g PN). Treatments N12, BN3, BN6, and BN12 were top-dressed on the Total Mixed Ration (TMR) twice daily. Treatment INF was divided in 5 equal portions and infused every 4 hours. Cows receiving treatments other than INF were infused with the same volume of water at the same times.
# On day 12, cows received an i.v, infusion of Epi (1.4 μg/kg BW). […] Total area under the curve (AUC) responses of nonesterified Fatty Acids (NEFA) and glucose concentrations in plasma were calculated using the trapezoidal rule.
# [2] = Rumen protected niacin, effect upon milk production; format: in vivo, Holstein cows; details: 12 g top-dressed on TMR twice daily (N12 / BN12)
# Text: Six multiparous rumen-cannulated Holstein cows (BW=656 kg) after peak lactation (128±23 days in milk) were assigned to 1 of 6 treatments in a completely randomized 6×6 Latin Square with an extra period to measure carry-over effects. Periods consisted of a 7-day (d 1-7) adaptation period followed by a 7-day (d 8-14) measurement period. Cows were fed according to NRC (2001) recommendations to meet or exceed requirements. Treatments were: CON (no niacin), INF (abomassal infusion of 12 g unprotected niacin (UN)), N12 (12 g UN), BN3 (3 g PN), BN6 (6 g PN), and BN12 (12 g PN). Treatments N12, BN3, BN6, and BN 12 were top-dressed on the Total Mixed Ration (TMR) twice daily. The daily dose of treatment INF was divided in 5 equal portions and infused during the day every 4 hours. Cows receiving treatments other than INF were infused with the same volume of water at the same time.
smiles,measurement,setting,value
"O=C(O)c1cccnc1 [UN, niacin]",Time to peak NEFA concentration,"[1]; 12 g top-dressed on TMR twice daily (N12 / BN12), i.v. Epi 1.4 μg/kg BW on day 12, plasma",22.1 ± 3.2 min
same,glucose AUC,"[1]; abomasal infusion of 12 g (INF) compared with N12, Epi challenge, P=0.04",greater AUC than N12
same,dry matter intake (DMI),[2],24.3 ± 1 kg
same,milk fat/protein ratio (F/P),[2]; P=0.03,1.15±0.09
same,Feed efficiency (FE=energy-corrected milk/DMI),[2]; P=0.04,1.5±0.1
same,Milk yield,[2]; P=0.06,37.1 ± 2.3 kg
